In US11065253B2, “Arylquinazolines” (Merck Patent GmbH, priority 2013, dated 2021):

The compounds below were run against Kv11.1 (hERG) channel (Homo sapiens (Human), UniProt Q12809) (assay: Kv11.1 ion channel binding assay (Predictor hERG fluorescence polarisation)). Conditions: class symbol marked with asterisk (*).
Experimental: D) Kv11.1 Ion Channel Binding Assay
Kv11.1 (hERG=human ether a go-go related […]) is a cardiac K^+ channel which should if possible not interact with the test substances. This interaction is determined quantitatively with the aid of the Predictor™ hERG Fluorescence Polarizations (FP) Assays from Life Technologies. In the case of this assay principle, cardiomyocyte cell membranes having a certain proportion of Kv11.1 channels are isolated. A dye-labelled Kv11.1 binding partner gives a high fluorescence polarisation signal by interaction with the Kv11.1. In the case of displacement of the dye, a reduction in the fluorescence polarisation signal occurs.
The assay is carried out automatically as follows: 15 nl of the test substances (highest concentration: 10 mM, 10 concentrations: dilution factors 1:3.16, DMSO) are transferred into an empty microtitre plates having 384 wells by means of an acoustic pipetter. 3 μl of the isolated membranes are subsequently added. Membranes and test substances are incubated at 22° C. for 15 min (+/−5 min). In the next step, the dye-labelled binding partner is added, followed by incubation at 22° C. After incubation for two hours, the measurement of the fluorescence polarisation is carried out on an Envision multimode Reader. Measured raw data are standardised with the aid of Genedata Assay Analyzer. The IC50 and % effect values are calculated in Genedata Condoseo.

Chain of Kv11.1 (hERG) channel (Q12809 whole entry): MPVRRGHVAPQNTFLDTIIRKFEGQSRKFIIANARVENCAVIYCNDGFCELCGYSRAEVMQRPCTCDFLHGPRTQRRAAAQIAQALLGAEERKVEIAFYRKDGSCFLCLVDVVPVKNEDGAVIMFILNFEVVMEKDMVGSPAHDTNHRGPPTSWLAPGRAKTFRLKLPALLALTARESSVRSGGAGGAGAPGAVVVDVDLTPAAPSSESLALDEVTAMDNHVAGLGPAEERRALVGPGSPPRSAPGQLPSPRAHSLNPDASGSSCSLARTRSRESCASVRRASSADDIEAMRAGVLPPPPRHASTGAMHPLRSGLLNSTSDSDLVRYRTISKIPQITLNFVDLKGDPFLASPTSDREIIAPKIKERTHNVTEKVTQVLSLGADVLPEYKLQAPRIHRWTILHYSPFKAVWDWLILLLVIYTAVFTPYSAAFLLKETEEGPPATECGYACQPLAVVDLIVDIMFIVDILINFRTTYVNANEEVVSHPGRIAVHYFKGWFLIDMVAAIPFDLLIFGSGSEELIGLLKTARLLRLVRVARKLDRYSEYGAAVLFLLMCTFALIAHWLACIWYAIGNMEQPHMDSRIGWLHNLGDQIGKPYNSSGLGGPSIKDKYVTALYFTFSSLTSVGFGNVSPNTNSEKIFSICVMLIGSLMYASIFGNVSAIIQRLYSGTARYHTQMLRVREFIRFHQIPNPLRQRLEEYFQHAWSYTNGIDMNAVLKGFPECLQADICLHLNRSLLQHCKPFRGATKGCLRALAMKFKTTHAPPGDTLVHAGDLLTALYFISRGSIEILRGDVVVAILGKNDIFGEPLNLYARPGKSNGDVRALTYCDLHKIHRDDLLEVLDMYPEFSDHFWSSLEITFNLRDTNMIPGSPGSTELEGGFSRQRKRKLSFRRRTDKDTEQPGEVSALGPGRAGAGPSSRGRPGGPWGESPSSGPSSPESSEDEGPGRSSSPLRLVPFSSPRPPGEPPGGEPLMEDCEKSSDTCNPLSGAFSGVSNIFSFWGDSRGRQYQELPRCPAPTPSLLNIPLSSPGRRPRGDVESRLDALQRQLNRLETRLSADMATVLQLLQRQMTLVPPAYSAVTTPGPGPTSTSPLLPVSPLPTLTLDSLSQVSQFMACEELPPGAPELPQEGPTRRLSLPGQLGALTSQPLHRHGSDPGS

Row | Structure (SMILES) | Ki [Kv1.11 hERG]
1 | COc1ccc(C(O)c2ccc(F)c(-c3ncnc4cc(N5CCOCC5)c(F)cc34)c2)nn1 (centres unmarked) [Example 282, [4-Fluoro-3-(6-fluoro-7-morpholin-4-yl-quinazolin-4-yl)-phenyl]-(6-methoxy-pyridazin-3-yl)-methanol] | A*
2 | COc1nccnc1C(O)c1cc(-c2ncnc3cc(N4CCOCC4)cc(F)c23)c(F)cc1Cl (centres unmarked) [Example 250, [2-Chloro-4-fluoro-5-(5-fluoro-7-morpholin-4-yl-quinazolin-4-yl)-phenyl]-(3-methoxy-pyrazin-2-yl)-methanol] | A*
3 | CNC(=O)C(c1cc(-c2ncnc3cc(N4CCOCC4)ccc23)c(F)cc1Cl)c1nccnc1C (centres unmarked) [Example 254, 2-[2-Chloro-4-fluoro-5-(7-morpholin-4-yl-quinazolin-4-yl)-phenyl]-N-methyl-2-(3-methyl-pyrazin-2-yl)acetamide] | A*
4 | COC(c1ccc(F)c(-c2ncnc3cc(N4CCOCC4)ccc23)c1)c1nccnc1C (centres unmarked) [Example 352] | A*
5 | COc1nccnc1C(O)c1ccc(F)c(-c2ncnc3cc(N4CCOCC4)cc(F)c23)c1 (single isomer, unassigned) [Example 253, [4-Fluoro-3-(5-fluoro-7-morpholin-4-yl-quinazolin-4-yl)-phenyl]-(3-methoxy-pyrazin-2-yl)-methanol] | A*
6 | Cc1nccnc1C(O)c1ccc(F)c(-c2ncnc3cc(N4CCOCC4)sc23)c1 (centres unmarked) [Example 246, [4-Fluoro-3-(6-morpholin-4-yl-thieno[3,2-d}-pyrimidin-4-yl)-phenyl]-(3-methyl-pyrazin-2-yl)-methanol] | A*
7 | COc1ccc(C(O)c2cc(-c3ncnc4cc(N5CCOCC5)cc(F)c34)c(F)cc2Cl)nn1 (single isomer, unassigned) [Example 263, [2-Chloro-4-fluoro-5-(5-fluoro-7-morpholin-4-yl-quinazolin-4-yl)-phenyl]-(6-methoxy-pyridazin-3-yl)-methanol] | A*
8 | NC(=O)C(c1ccc(F)c(-c2ncnc3cc(N4CCOCC4)ccc23)c1)c1nncc2ccsc12 (centres unmarked) [Example 284, 2-[4-Fluoro-3-(7-morpholin-4-yl-quinazolin-4-yl)-phenyl]-2-thieno-[2,3-d}pyridazin-7-yl-acetamide] | A*

What follows are compounds tested on phospho-serine 2056 DNA-PK in HCT116 cells (assay: DNA-PK phosphorylation at serine 2056 (cellular), ELISA in bleomycin-treated HCT116 cells). Conditions: Homo sapiens, HCT-116, 6 h, cellular; HCT116 cells, 10 μM bleomycin, six hours; read-out: IC50 pDNA-PK.
Type: cell-based
Procedure, shortened: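 HCT116, MEM alpha + 10% FCS, 37 °C/10% CO2, seeded o/n. Cpd + 10 μM bleomycin, 6 h. ELISA, chemiluminescence; phospho/total DNA-PKcs ratio, DMSO = blank.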

Row | IC50 | Structure (SMILES)
9 | 5 to 10 µM | Cc1cnnc(C(O)c2cc(-c3ncnc4cc(N5CCOCC5)ccc34)c(F)cc2Cl)c1 (centres unmarked) [Example 46, [2-Chloro-4-fluoro-5-(7-morpholin-4-yl-quinazolin-4-yl)phenyl]-(5-methylpyridazin-3-yl)methanol]
10 | 0.5 to 5 µM | O=c1ccc(C(O)c2cc(-c3ncnc4cc(N5CCOCC5)ccc34)c(F)cc2Cl)nn1CCO (centres unmarked) [Example 99, 6-{[2-Chloro-4-fluoro-5-(7-morpholin-4-yl-quinazolin-4-yl)phenyl]-hydroxymethyl}-2-(2-hydroxy-ethyl)-2H-pyridazin-3-one]
11 | < 0.5 µM | OC(c1ccc(F)c(-c2ncnc3cc(N4CCOCC4)ccc23)c1)c1nccnc1Cl (centres unmarked) [Example 54, (3-Chloro-pyrazin-2-yl)-[4-fluoro-3-(7-morpholin-4-yl-quinazolin-4-yl)phenyl]-methanol]
12 | 5 to 10 µM | CN(C)c1ccc(C(O)c2ccc(F)c(-c3ncnc4cc(N5CCOCC5)ccc34)c2)nn1 (centres unmarked) [Example 68, (6-Dimethylamino-pyridazin-3-yl)-[4-fluoro-3-(7-morpholin-4-yl-quinazolin-4-yl)phenyl]-methanol]
13 | 0.5 to 5 µM | Cc1ccc(C(O)c2ccc(F)c(-c3ncnc4cc(N5CCOCC5)ccc34)c2)nn1 (centres unmarked) [Example 70, [4-Fluoro-3-(7-morpholin-4-yl-quinazolin-4-yl)phenyl]-(6-methylpyridazin-3-yl)methanol]
14 | 10 to 30 µM | O=C(O)c1ccc(C(O)c2cc(-c3ncnc4cc(N5CCOCC5)ccc34)c(F)cc2Cl)nn1 (centres unmarked) [Example 55, 6-{[2-Chloro-4-fluoro-5-(7-morpholin-4-yl-quinazolin-4-yl)phenyl]-hydroxymethyl}-pyridazine-3-carboxylic acid]
15 | < 0.5 µM | OC(c1cc(-c2ncnc3cc(N4CCOCC4)ccc23)ccc1Cl)c1ncnc2ccsc12 (centres unmarked) [Example 89, [2-Chloro-5-(7-morpholin-4-yl-quinazolin-4-yl)-phenyl]thieno[3,2-d}-pyrimidin-4-ylmethanol]

Same assay, conditions: Homo sapiens, HCT-116, cellular DNA-PK phosphorylation at serine 2056, HCT116 cells; read-out: IC50 pDNA-PK

Row | IC50 | Structure (SMILES)
16 | < 0.5 µM | OC(c1ccc(F)c(-c2ncnc3cc(N4CCOCC4)ccc23)c1)c1ncnc2ccsc12 (centres unmarked) [Example 438, [4-Fluoro-3-(7-morpholin-4-yl-quinazolin-4-yl)-phenyl]thieno[3,2-d}-pyrimidin-4-yl-methanol]
17 | 10 to 30 µM | CN1CCN(c2nccnc2C(O)c2ccc(F)c(-c3ncnc4cc(N5CCOCC5)ccc34)c2)C1=O (centres unmarked) [Example 424, 1-(3-{[4-Fluoro-3-(7-morpholin-4-yl-quinazolin-4-yl)-phenyl]hydroxy-methyl}pyrazin-2-yl)-3-methyl-imidazolidin-2-one]
18 | 0.5 to 5 µM | Cn1ncc2c(C(O)c3cc(-c4ncnc5cc(N6CCOCC6)ccc45)c(F)cc3Cl)ncnc21 (centres unmarked) [Example 402, [2-Chloro-4-fluoro-5-(7-morpholin-4-yl-quinazolin-4-yl)-phenyl]-(1-methyl-1H-pyrazolo[3,4-d}-pyrimidin-4-yl)-methanol]

Same assay, conditions: Homo sapiens, HCT-116, phospho-serine 2056 DNA-PK, bleomycin-treated HCT116 cells; class symbols A-D; read-out: IC50 pDNA-PK

Row | IC50 | Structure (SMILES)
19 | < 0.5 µM | OC(c1cccnc1)c1cc(-c2ncnc3cc(N4CCOCC4)ccc23)c(F)cc1F (centres unmarked) [Example 217, [2,4-Difluoro-5-(7-morpholin-4-yl-quinazolin-4-yl)-phenyl]pyridin-3-yl-methanol]
20 | 10 to 30 µM | COc1ccc(C(O)(c2cc(-c3ncnc4cc(N5CCOCC5)ccc34)c(F)cc2Cl)C(F)F)nn1 (centres unmarked) [Example 123, 1-[2-Chloro-4-fluoro-5-(7-morpholin-4-yl-quinazolin-4-yl)-phenyl]-2,2-difluoro-1-(6-methoxy-pyridazin-3-yl)-ethanol]
21 | 10 to 30 µM | Cc1nc(C(O)c2cc(-c3ncnc4cc(N5CCOCC5)ccc34)cnc2F)sc1C (centres unmarked) [Example 205, (4,5-Dimethyl-thiazol-2-yl)-[2-fluoro-5-(7-morpholin-4-yl-quinazolin-4-yl)-pyridin-3-yl]-methanol]
22 | 0.5 to 5 µM | COc1ccc(C(O)c2cc(-c3ncnc4cc(N5CCOCC5)ccc34)c(F)cc2Cl)nn1 (centres unmarked) [Example 137, [2-Chloro-4-fluoro-5-(7-morpholin-4-ylquinazolin-4-yl)-phenyl]-(6-methoxy-pyridazin-3-yl)-methanol]

Same assay, conditions: Homo sapiens, HCT-116, phospho-serine 2056 DNA-PK, bleomycin-treated HCT116 cells; read-out: IC50 pDNA-PK

Row | Structure (SMILES) | IC50
23 | COc1ccc(C(O)c2ccc(F)c(-c3ncnc4cc(N5CCOCC5)c(F)cc34)c2)nn1 (centres unmarked) [Example 282, [4-Fluoro-3-(6-fluoro-7-morpholin-4-yl-quinazolin-4-yl)-phenyl]-(6-methoxy-pyridazin-3-yl)-methanol] | 10 to 30 µM
24 | CNC(=O)C(c1cc(-c2ncnc3cc(N4CCOCC4)ccc23)c(F)cc1Cl)c1nccnc1C (centres unmarked) [Example 254, 2-[2-Chloro-4-fluoro-5-(7-morpholin-4-yl-quinazolin-4-yl)-phenyl]-N-methyl-2-(3-methyl-pyrazin-2-yl)acetamide] | 10 to 30 µM
25 | OC(c1cc(-c2ncnc3cc(N4CCOCC4)ccc23)ccc1Cl)c1ncnn2cccc12 (centres unmarked) [Example 362, [2-Chloro-5-(7-morpholin-4-yl-quinazolin-4-yl)-phenyl]pyrrolo[2,1-f]-[1,2,4]triazin-4-yl-methanol] | 0.5 to 5 µM
26 | OC(c1cc(-c2ncnc3cc(N4CCOCC4)ccc23)ccc1Cl)c1nccn2cccc12 (centres unmarked) [Example 361, [2-Chloro-5-(7-morpholin-4-yl-quinazolin-4-yl)-phenyl]pyrrolo[1,2-a]-pyrazin-1-ylmethanol] | 0.5 to 5 µM

More lines, now with the values ahead:

Row | IC50 | Structure (SMILES)
27 | 10 to 30 µM | Cc1cnc(C(C(N)=O)c2ccc(F)c(-c3ncnc4cc(N5CCOCC5)ccc34)c2)c(C)n1 (centres unmarked) [Example 318, 2-(3,5-Dimethyl-pyrazin-2-yl)-2-[4-fluoro-3-(7-morpholin-4-yl-quinazolin-4-yl)-phenyl]acetamide]
28 | 10 to 30 µM | NC(=O)C(c1cccnn1)c1cc(-c2ncnc3cc(N4CCOCC4)ccc23)c(F)cc1Cl (centres unmarked) [Example 300, 2-[2-Chloro-4-fluoro-5-(7-morpholin-4-yl-quinazolin-4-yl)-phenyl]-2-pyridazin-3-ylacetamide]

Same assay, conditions: cellular DNA-PK phosphorylation at serine 2056, HCT116 cells; read-out: IC50 pDNA-PK

Row | Structure (SMILES) | IC50
29 | OC(c1cc(-c2ncnc3cc(N4CCOCC4)ccc23)c(F)cc1F)c1nccnc1OC(F)F (centres unmarked) [Example 451, (3-Difluoromethoxy-pyrazin-2-yl)-[2,4-difluoro-5-(7-morpholin-4-yl-quinazolin-4-yl)-phenyl]methanol] | 0.5 to 5 µM
30 | Cn1c(C(O)c2cc(-c3ncnc4cc(N5CCOCC5)ccc34)c(F)cc2Cl)cccc1=O (centres unmarked) [Example 435, 6-{[2-Chloro-4-fluoro-5-(7-morpholin-4-yl-quinazolin-4-yl)-phenyl]hydroxy-methyl}-1-methyl-1H-pyridin-2-one] | < 0.5 µM

Same assay, conditions: cellular; HCT116 cells, 10 μM bleomycin, six hours; read-out: IC50 pDNA-PK

Row | IC50 | Structure (SMILES)
31 | < 0.5 µM | OC(c1ccc(F)c(-c2ncnc3cc(N4CCOCC4)sc23)c1)c1nccnc1Cl (single isomer, unassigned) [Example 24, (3-Chloro-pyrazin-2-yl)-[4-fluoro-3-(6-morpholin-4-yl-thieno-[3,2-d}pyrimidin-4-yl)-phenyl]methanol]

Same assay, conditions: phospho-serine 2056 DNA-PK, bleomycin-treated HCT116 cells; read-out: IC50 pDNA-PK

Row | IC50 | Structure (SMILES)
32 | < 0.5 µM | COc1nccnc1C(O)c1cc(-c2ncnc3cc(N4CCOCC4)cc(F)c23)c(F)cc1Cl (centres unmarked) [Example 250, [2-Chloro-4-fluoro-5-(5-fluoro-7-morpholin-4-yl-quinazolin-4-yl)-phenyl]-(3-methoxy-pyrazin-2-yl)-methanol]
